# According to US20150368617A1, “METHOD FOR FORMING ENDOTHELIAL CELLS” (Korea Advanced Institute of Science and Technology (KAIST), priority 2012, published 2015):
# What was measured:
# VYI-ECs = assay: Scratch wound healing assay; type: cell-based, mouse; settings: addition of Y27632 10 μM to VEGF-A
# Procedure: The purified VYI-ECs were plated on Matrigel-coated plates and incubated in differentiation medium until confluent. A single scratch wound was made on the cell-plated surface with a 200┌ l disposable pipette tip, and the medium was exchanged with a new medium containing either VEGF-A (50 ng/ml), Y27632 (10┌ M), or both. The wound was allowed to heal for 12 hrs. Phase contrast images were taken at 0, 3, 6, and 12 hrs. The average extent of wound closure was evaluated by measuring the wound area using ImageJ software.
# Flk1+ MPCs = assay: CM differentiation from Flk1+ MPCs in OP9 co-culture system; type: cell-based, mouse
# Procedure: EMG7 mouse ESCs which have ┌-myosin heavy chain (MHC) promoter driven enhanced green fluorescent protein (GFP) gene and OP9 cells were a generous gift from Dr. Jun K. Yamashita (Kyoto University). EMG7 ESCs were plated on a 0.1% gelatin coated 60p dish and maintained in a medium (GMEM, Invitrogen) containing 10% knockout serum, 2-mercaptoethanol (Invitrogen), sodium pyruvate (Invitrogen), non-essential amino acid and antibiotics (Invitrogen). leukemia inhibitory factor (LIF), Blasticidin (Invitrogen) and G418 (Invitrogen) were added in the medium at the time of the medium change. OP9 cells were maintained in a medium (alpha MEM, Invitrogen) containing 20% of fetal bovine serum (FBS), 2-mercaptoethanol (Invitrogen), L-glutamine (Invitrogen) and antibiotics (Invitrogen). The medium was changed every 2 days for both EMG7 ESCs and OP9 cells. For induction of Flk1+MPCs, EMG7 ESCs were cultured and plated on a 0.1% gelatin coated 100 p dish in the differentiation medium (alpha MEM, Invitrogen) with contained 10% FBS, 2-mercaptoethanol (Invitrogen), L-glutamine (Invitrogen) and antibiotics (Invitrogen) for 4.5 days (96-112 hours). The medium was changed every 2 days. At 4.5 days, differentiated EMG7 ESCs were harvested with 0.025% trypsin-EDTA and antigen recovery was performed in the differentiation medium for 30 minutes in an incubator. Then, cells were washed using phosphate buffered saline/10% FBS and attached with biotin-conjugated anti-mouse Flk1+ antibody (eBioscience) and […] MicroBeads (Miltenyi Biotec). Flk1+ MPCs were sorted by AutoMACS Pro Separator (Miltenyi Biotec). Sorted Flk1+ MPCs were plated onto the mitomycin-C (MMC) (Ag scientific) treated confluent OP9 cells at a density of 1-2×10^4 cells/cm^2 and cultured in the differentiation medium. The medium was changed every 2 days. CsA (a gift from Novartis Pharma, Korea) was treated in sorted Flk1+ MPCs on OP9 cells. CsA was dissolved in dimethyl sulfoxide (DMSO) (Sigma) and diluted 2┌ g/mL in the differentiation medium at the time of medium change. 10┌ M of Y27632 (purchased from Calbiochem) were treated in sorted Flk1+MPCs on OP9 cells and sorted MHC GFP+CMs at the time of medium change. Analysis and sorting for CMs were performed at day 10.5. We harvested differentiated Flk1+ MPCs on OP9 cells with 0.25% trypsin-EDTA or dissociation buffer (Invitrogen). Cardiac troponin-T (cTnT)+ and ┌ smooth muscle actin (SMA)+ cells were analyzed after permeabilization using Cytofix/Cytoperm solution (BD Biosciences) for 15 min. After permeabilization, the cells were incubated for 30 min with anti-mouse cTnT (NeoMarkers) monoclonal antibody. […] Data were analyzed using FlowJo Version 7.5.4 software (TreeStar).
# [1] = Y27632 10 μM plus CsA vs CsA only, day 10.5
smiles,measurement,setting,value
C[C@@H](N)[C@H]1CC[C@H](C(=O)Nc2ccncc2)CC1 [Y27632],increase of cell invasion into the wound region,VYI-ECs,2.1 fold
same,area of self-beating CMs,Flk1+ MPCs; Y27632 10 μM plus CsA 2 μg/mL,strikingly increased
same,increase of cTnT+ CMs compared to control CsA only,"Flk1+ MPCs; Y27632 10 μM plus CsA 2 μg/mL, 6 days",~1.9 fold
same,increase of area of cTnT+ CMs,Flk1+ MPCs; [1],~2.3 fold
same,increase of area of αMHC GFP+ CMs,Flk1+ MPCs; [1],~1.7 fold
